Measurements reported in patent publication US12435026B2, “Solabegron zwitterion and uses thereof” (B3AR THERAPEUTICS, INC., priority 2015, dated 2025).
Values belong to the compound of their own block, whether it stands above or below them.

How the values were obtained:
[1] = Solubility among forms of solabegron; assay type: physicochemical
From the text: After extensive effort, applicants have newly discovered two crystalline forms of solabegron zwitterion. One form, form I, is an anhydrous crystalline form and is characterized by an x-ray powder diffraction pattern having peaks expressed in degrees 2θ (±2) at 6.2, 12.5; 18.8; 20.6; and 25.2. A second form, form II is a hydrate of isopropanol solvate and is characterized by an x-ray powder diffraction pattern having peaks expressed in degrees 2θ (±2) at 17.6, 18.7, 19.6, 20.1, 20.5, 23.7, and 25.8. (See EXAMPLE 3 and FIGS. 7, 12 and 14). […] After isolation the solabegron crystals can be dissolved and then crystallized to the solabegron HCL salt form, which is currently being investigated clinically. Of equal importance, the pharmaceutical compositions of solabegron zwitterion disclosed herein could be used as the active ingredient clinically, replacing the need for the HCl salt form of solabegron.

[2] = Relative stability of solabegron zwitterion Forms I and II via slurry conditioning in IPA/H2O; assay type: physicochemical; conditions: for relative stability of crystal forms: slurry conditioning in IPA/H2O with different ratio (FIG. 10)
Procedure: The relative stability of solabegron zwitterion Forms I and II was evaluated via slurry conditioning of either solabegron zwitterion Form I or a mixture of solabegron zwitterion Forms I and II in IPA/H2O with different ratio, for a) confirmation of relative stability of the two solabegron zwitterion forms, and b) rational process design and control. The table in FIG. 10 lists the testing conditions and results.

[3] = system: women with moderate to severe OAB; conditions: Ohlstein et al., Eur. Urol. 2012; cited from earlier work

- solubility relative to other forms of solabegron [1]: least soluble form of solabegron
SMILES: O=C(O)c1cccc(-c2cccc(NCCNC[C@H](O)c3cccc(Cl)c3)c2)c1 [Solabegron zwitterion]

SMILES: O=C(O)c1cccc(-c2cccc(NCCNC[C@H](O)c3cccc(Cl)c3)c2)c1 [solabegron zwitterion Form II]
- relative stability of crystal forms [2]: more stable than solabegron zwitterion Form I
- relative stability of crystal forms ([2]; listed as form II solabegron zwitterion): more stable than the form I solabegron zwitterion

SMILES: O=C(O)c1cccc(-c2cccc(NCCNC[C@H](O)c3cccc(Cl)c3)c2)c1 [solabegron zwitterion Form I]
- crystal form resulting from slurry conditioning ([2]; starting with Form I alone or a mixture of Forms I and II, IPA/H2O with different ratio (FIG. 10)): Solabegron zwitterion Form II resulted from all tested conditions

SMILES: O=C(O)c1cccc(-c2cccc(NCCNC[C@H](O)c3cccc(Cl)c3)c2)c1 [solabegron, 3′-[(2-{[(2R)-2-(3-chlorophenyl)-2-hydroxyethyl]amino}ethyl)amino]biphenyl-3-carboxylic acid]
- safety and tolerability; adverse events as compared to placebo [3]: safe, well tolerated, and does not demonstrate significant differences in adverse events as compared to placebo
- symptoms of OAB [3]: significantly reduced the symptoms of OAB
